Values quoted from earlier work as cited in patent US9993449B2, “(S)-3-amino-4-(difluoromethylenyl)cyclopent-1-ene-1-carboxylic acid, and related compounds as GABA aminotransferase inactivators for the treatment of epilepsy, addiction and hepatocellular carcinoma” (NORTHWESTERN UNIVERSITY, priority 2015, dated 2018).

Columns and labels:
[1] = in vivo; cited from earlier work
CYP2C9 = target: T1, CYP2C9 (Homo sapiens, UniProt P11712); conditions: earlier finding for CPP-115; cited from earlier work
T1 construct: tissue Eurofins Panlabs; host or cells: human liver microsomes

hERG channel = target: T2, hERG channel (Homo sapiens, UniProt Q12809); conditions: earlier finding for CPP-115; cited from earlier work
T2 construct: host or cells: CHO-K1

CYP1A = target: T3, CYP1A (Homo sapiens, UniProt P05177); conditions: earlier finding for CPP-115; cited from earlier work
T3 construct: tissue Eurofins Panlabs; host or cells: human liver microsomes
T3 sequence (P05177 1-516): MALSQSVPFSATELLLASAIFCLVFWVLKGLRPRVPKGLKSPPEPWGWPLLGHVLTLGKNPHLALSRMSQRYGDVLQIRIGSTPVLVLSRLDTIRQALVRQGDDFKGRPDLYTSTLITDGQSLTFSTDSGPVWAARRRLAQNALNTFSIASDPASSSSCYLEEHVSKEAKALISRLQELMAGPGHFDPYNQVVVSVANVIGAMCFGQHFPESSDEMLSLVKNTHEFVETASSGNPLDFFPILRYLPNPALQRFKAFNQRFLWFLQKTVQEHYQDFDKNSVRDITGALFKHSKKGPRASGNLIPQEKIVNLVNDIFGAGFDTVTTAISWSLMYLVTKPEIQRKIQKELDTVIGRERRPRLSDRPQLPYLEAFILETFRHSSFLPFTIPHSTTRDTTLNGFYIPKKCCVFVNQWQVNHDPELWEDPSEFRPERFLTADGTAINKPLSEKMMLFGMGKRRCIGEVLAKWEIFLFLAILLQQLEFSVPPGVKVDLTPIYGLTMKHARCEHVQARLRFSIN

CYP2B6 = target: T4, CYP2B6 (Homo sapiens, UniProt P20813); conditions: earlier finding for CPP-115; cited from earlier work
T4 construct: tissue Eurofins Panlabs; host or cells: human liver microsomes
T4 sequence (P20813 1-491): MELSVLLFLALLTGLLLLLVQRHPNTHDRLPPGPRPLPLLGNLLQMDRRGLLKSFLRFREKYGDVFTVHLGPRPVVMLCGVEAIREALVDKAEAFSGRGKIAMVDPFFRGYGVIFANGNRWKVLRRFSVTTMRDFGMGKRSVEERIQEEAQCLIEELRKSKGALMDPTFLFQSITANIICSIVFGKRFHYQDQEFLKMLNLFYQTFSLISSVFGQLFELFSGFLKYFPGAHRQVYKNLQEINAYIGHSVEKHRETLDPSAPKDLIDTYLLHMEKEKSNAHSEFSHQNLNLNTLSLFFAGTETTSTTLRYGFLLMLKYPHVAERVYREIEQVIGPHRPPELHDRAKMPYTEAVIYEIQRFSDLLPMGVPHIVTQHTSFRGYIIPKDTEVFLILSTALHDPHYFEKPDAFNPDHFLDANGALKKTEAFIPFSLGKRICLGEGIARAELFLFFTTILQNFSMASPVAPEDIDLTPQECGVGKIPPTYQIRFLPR

[2] = system: glucose metabolism in the hippocampus; conditions: previous similar tests; cited from earlier work
[3] = system: release of dopamine in the NAcc; conditions: freely moving rats after 20 mg/kg cocaine; cited from earlier work
infantile spasms = conditions: multiple-hit rat model; cited from earlier work
[4] = target: T5, ornithine aminotransferase (OAT) (Homo sapiens, UniProt P04181); conditions: reported; cited from earlier work
T5 sequence (P04181 26-439): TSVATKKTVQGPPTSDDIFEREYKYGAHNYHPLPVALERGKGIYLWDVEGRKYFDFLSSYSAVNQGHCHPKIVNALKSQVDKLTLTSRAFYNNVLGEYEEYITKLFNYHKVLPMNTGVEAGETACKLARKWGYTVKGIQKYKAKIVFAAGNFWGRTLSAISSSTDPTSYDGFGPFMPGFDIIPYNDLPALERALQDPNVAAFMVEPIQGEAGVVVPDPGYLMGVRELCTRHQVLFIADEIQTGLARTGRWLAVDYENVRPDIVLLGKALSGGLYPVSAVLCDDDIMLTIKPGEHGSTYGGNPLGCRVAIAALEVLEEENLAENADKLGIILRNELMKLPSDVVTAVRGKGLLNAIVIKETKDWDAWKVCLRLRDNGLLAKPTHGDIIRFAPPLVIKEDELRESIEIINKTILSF

CYP2D6 = target: T6, CYP2D6 (Homo sapiens, UniProt P10635); conditions: earlier finding for CPP-115; cited from earlier work
T6 construct: tissue Eurofins Panlabs; host or cells: human liver microsomes

[5] = system: aspartate aminotransferase (Asp-AT); conditions: reported; cited from earlier work
[6] = system: alanine aminotransferase (Ala-AT); conditions: reported; cited from earlier work
striatal dopamine levels = conditions: previous similar tests; cited from earlier work
CYP2C19 = target: T7, CYP2C19 (Homo sapiens, UniProt P33261); conditions: earlier finding for CPP-115; cited from earlier work
T7 construct: tissue Eurofins Panlabs; host or cells: human liver microsomes

CYP2C8 = target: T8, CYP2C8 (Homo sapiens, UniProt P10632); conditions: earlier finding for CPP-115; cited from earlier work
T8 construct: tissue Eurofins Panlabs; host or cells: human liver microsomes
T8 sequence (P10632 1-490): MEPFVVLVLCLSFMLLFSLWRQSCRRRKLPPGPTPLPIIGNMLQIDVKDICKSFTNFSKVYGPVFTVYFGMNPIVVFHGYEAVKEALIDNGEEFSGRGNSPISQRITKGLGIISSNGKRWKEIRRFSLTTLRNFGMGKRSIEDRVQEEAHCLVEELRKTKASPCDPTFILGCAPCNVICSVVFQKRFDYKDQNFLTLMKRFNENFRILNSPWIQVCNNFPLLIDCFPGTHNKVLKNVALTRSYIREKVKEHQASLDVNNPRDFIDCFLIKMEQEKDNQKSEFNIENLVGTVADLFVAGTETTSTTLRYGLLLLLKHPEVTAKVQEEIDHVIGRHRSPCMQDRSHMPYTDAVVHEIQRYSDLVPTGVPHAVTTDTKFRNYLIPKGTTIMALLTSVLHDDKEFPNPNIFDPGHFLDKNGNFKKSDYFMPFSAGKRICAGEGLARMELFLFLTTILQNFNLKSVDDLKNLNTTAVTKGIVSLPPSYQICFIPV

CYP3A = conditions: earlier finding for CPP-115; cited from earlier work
[7] = long-term administration; cited from earlier work
cocaine addiction = cocaine addiction in humans, 9-week double-blind trial; cited from earlier work
addiction = conditions: cocaine, nicotine, methamphetamine, heroin, and alcohol; cited from earlier work

T6 sequence (P10635 whole entry): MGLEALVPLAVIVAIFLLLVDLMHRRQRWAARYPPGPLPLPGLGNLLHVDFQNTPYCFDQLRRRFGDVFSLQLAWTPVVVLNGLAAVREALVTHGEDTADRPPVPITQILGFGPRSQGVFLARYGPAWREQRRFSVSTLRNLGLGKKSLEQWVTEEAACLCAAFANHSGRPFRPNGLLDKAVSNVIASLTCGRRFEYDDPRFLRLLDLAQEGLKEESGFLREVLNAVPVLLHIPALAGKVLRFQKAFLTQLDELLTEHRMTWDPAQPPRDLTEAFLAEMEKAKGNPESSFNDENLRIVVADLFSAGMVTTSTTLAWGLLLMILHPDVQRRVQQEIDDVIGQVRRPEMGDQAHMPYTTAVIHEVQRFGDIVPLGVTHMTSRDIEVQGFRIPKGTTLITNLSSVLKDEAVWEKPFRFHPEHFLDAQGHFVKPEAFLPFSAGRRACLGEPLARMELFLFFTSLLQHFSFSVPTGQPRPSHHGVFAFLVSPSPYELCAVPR
T7 sequence (P33261 whole entry): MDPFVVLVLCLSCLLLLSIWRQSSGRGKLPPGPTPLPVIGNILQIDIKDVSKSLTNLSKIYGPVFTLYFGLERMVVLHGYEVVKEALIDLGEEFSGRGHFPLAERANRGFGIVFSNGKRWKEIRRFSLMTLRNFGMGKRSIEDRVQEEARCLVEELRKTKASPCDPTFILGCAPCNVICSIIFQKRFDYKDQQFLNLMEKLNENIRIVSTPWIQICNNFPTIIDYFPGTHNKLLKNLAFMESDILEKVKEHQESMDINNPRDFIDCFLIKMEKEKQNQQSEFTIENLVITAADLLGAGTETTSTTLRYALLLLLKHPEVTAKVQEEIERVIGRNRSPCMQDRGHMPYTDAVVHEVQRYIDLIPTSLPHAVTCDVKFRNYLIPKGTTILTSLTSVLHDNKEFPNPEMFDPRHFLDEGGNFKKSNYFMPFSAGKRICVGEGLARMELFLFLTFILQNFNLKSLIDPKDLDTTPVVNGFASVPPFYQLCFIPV
T2 sequence (Q12809 whole entry): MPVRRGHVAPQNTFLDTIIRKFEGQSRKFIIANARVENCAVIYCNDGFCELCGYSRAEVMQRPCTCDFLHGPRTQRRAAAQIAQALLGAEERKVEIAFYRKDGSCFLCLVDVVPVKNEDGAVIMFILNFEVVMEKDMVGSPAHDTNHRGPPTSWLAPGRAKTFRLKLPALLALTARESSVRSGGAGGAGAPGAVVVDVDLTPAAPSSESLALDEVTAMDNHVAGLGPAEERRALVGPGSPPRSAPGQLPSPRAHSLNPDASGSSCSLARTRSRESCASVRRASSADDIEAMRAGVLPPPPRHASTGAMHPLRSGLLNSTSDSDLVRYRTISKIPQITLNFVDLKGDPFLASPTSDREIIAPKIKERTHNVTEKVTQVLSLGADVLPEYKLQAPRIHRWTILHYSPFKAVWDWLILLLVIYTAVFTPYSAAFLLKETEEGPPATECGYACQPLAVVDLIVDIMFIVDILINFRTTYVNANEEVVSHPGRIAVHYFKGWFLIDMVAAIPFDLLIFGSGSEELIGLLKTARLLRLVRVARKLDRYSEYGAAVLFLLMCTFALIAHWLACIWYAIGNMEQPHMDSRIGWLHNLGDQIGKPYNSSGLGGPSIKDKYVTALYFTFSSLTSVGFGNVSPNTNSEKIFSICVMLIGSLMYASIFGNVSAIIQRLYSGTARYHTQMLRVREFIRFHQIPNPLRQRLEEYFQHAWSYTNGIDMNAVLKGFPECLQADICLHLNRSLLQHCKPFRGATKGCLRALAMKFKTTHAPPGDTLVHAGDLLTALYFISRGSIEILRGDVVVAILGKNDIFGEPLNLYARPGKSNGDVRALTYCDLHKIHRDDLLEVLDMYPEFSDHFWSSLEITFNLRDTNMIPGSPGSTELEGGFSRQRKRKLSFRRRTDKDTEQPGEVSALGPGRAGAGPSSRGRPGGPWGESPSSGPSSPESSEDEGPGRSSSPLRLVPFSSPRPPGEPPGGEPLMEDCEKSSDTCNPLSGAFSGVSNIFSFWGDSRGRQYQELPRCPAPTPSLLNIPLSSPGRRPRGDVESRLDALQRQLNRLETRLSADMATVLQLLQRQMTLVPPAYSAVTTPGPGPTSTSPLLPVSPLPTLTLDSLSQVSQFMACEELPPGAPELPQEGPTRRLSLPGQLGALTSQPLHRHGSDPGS
T1 sequence (P11712 whole entry): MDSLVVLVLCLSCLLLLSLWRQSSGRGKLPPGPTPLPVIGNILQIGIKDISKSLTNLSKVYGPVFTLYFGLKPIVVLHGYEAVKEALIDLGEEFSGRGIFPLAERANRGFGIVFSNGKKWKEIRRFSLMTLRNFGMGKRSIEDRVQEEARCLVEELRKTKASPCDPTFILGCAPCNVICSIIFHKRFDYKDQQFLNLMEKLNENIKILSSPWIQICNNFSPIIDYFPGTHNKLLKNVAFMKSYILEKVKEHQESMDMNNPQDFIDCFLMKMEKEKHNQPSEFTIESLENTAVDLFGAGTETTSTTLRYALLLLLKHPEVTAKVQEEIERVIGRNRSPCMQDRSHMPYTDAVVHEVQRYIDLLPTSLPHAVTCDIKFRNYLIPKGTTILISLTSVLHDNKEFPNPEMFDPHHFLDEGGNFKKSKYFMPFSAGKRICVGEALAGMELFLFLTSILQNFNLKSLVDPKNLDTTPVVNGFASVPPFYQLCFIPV

SMILES | margin of safety versus vigabatrin [1] | retinal toxicity liability versus vigabatrin [1] | inhibition or induction of CYP 2C9 (CYP2C9) | inhibition of the activity of the hERG channel (hERG channel) | inhibition or induction of CYP 1A (CYP1A) | inhibition or induction of CYP 2B6 (CYP2B6) | hippocampal metabolism (cocaine-induced) [2] | times more potent than vigabatrin in reducing the release of dopamine in the NAcc [3] [times] | duration of spasm suppression versus vigabatrin (infantile spasms) | KI (inactivation) [4] [µM] | inhibition or induction of CYP 2D6 (CYP2D6) | inactivation or inhibition of Asp-AT [5] | inactivation or inhibition of Ala-AT [6] | cocaine-induced increases in striatal dopamine (striatal dopamine levels) | inhibition or induction of CYP 2C19 (CYP2C19) | inhibition or induction of CYP 2C8 (CYP2C8) | inhibition or induction of CYP 3A (CYP3A) | epilepsy patients with permanent vision loss [7] | patients achieving abstinence (cocaine addiction) | treatment of addiction in animal models (addiction)
N[C@H]1C[C@@H](C(=O)O)CC1=C(F)F [CPP-115, (1S,3S)-3-amino-4-difluoromethylenyl-1-cyclopentanoic acid] | much larger | considerably lower | does not inhibit or induce | does not inhibit | does not inhibit or induce | does not inhibit or induce | did not completely block | > 300 | longer spasm suppression | 116 | does not inhibit or induce | not to inactivate or inhibit | not to inactivate or inhibit | blocked | does not inhibit or induce | does not inhibit or induce | does not inhibit or induce |  |  | 
C=CC(N)CCC(=O)O (stereo not shown) [vigabatrin] |  |  |  |  |  |  | did not completely block |  |  |  |  |  |  | blocked |  |  |  | 25-40% | up to 28% | successful
